Measured values: the NIST ThermoML archive (doi:10.1016/j.jct.2010.04.006)
Numbers after ± are expanded uncertainties.

Columns and labels:
[1] = Molar enthalpy of transition or fusion; conditions: Crystal; DSC
[2] = Crystal; DTA

O=C1Cc2ccccc2N1 [indolin-2-one]
Molar enthalpy of transition or fusion [1]: 4.48 ± 0.136 kcal/mol
Normal melting temperature [2]: 125.71 ± 0.5 °C
